Values quoted from earlier work, collected in patent US6921840B1 (The Trustees of the University of Pennsylvania, priority 1999, dated 2005).

Tests used:
[1] = at 2 to 6 hr, Biegon et al. 1993; cited from earlier work
serotonin uptake (SERT) = biological target: T1, serotonin uptake (SERT) (Rattus norvegicus, UniProt P31652); details: taken from Ferris et al. 1995; read-out: IC50 for inhibition on substrate uptake, SERT; cited from earlier work
T1 construct: host or cells: rat brain synaptosomes
T1 sequence (P31652 whole entry): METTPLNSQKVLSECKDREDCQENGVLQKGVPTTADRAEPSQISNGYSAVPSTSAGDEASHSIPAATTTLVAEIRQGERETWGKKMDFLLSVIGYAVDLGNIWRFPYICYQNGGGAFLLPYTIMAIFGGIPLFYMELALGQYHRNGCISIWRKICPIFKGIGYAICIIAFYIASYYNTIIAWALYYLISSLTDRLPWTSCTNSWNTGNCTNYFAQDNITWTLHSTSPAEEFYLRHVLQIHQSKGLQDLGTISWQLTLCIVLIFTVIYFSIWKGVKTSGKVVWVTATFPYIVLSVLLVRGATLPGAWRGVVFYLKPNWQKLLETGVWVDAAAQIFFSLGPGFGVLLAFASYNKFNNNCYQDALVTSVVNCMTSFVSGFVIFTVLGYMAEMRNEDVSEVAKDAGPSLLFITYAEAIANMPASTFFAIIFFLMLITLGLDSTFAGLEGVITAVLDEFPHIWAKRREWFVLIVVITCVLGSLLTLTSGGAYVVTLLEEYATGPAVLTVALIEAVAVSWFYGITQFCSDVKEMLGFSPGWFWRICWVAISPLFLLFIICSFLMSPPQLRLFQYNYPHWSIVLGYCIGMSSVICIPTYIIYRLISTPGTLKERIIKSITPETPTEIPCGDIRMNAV

[2] = biological target: T2, norepinephrine uptake (NET) (Rattus norvegicus, UniProt Q63380); details: cited from earlier work
T2 construct: host or cells: rat brain synaptosomes
T2 sequence (Q63380 1-617): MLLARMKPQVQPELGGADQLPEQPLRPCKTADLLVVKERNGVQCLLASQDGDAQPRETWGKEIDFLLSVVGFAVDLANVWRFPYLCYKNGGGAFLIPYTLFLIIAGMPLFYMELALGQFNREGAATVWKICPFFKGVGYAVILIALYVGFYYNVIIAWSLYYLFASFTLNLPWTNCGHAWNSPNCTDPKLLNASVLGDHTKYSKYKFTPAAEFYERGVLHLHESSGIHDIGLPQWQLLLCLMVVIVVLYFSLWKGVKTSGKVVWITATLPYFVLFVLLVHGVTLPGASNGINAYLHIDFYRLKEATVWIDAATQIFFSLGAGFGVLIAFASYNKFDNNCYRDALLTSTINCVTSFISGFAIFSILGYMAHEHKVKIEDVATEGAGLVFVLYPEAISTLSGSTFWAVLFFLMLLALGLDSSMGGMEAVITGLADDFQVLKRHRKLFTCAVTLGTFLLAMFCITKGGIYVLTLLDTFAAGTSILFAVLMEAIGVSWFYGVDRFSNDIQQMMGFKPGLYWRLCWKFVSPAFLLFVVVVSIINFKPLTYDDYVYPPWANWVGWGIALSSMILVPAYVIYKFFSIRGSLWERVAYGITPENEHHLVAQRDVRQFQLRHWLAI

DAT = DAT (Rattus norvegicus, UniProt P23977); details: taken from Ferris et al. 1995; read-out: IC50 for inhibition on substrate uptake, DAT; cited from earlier work
Sequence of DAT (P23977 whole entry): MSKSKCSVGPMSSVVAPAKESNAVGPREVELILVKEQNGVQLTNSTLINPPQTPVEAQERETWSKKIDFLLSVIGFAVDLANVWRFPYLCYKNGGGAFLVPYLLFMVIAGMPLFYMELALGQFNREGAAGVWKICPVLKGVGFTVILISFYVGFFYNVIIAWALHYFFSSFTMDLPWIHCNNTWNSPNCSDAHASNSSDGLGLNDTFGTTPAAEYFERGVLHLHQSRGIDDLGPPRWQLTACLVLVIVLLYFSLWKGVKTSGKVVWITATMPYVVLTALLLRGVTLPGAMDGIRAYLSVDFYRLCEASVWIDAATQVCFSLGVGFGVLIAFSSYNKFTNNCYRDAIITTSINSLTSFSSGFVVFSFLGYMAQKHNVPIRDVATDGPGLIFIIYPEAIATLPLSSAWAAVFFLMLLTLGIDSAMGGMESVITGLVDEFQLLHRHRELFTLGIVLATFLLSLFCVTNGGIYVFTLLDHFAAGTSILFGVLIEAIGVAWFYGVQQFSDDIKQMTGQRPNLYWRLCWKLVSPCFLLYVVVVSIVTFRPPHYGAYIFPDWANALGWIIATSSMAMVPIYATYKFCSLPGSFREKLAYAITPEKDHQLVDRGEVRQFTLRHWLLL

| Structure (SMILES) | specific regional binding ratio, hypothalamus [1] | IC50 (serotonin uptake (SERT)) [µM] | Ki ([2]; rat brain synaptosomes) [µM] | IC50 ([2]; taken from Ferris et al. 1995, read-out: IC50 for inhibition on substrate uptake, NET) [µM] | IC50 (DAT) [µM] |
| --- | --- | --- | --- | --- | --- |
| O=[N+]([O-])c1ccc2nc(N3CCNCC3)ccc2c1I [[^123I]5-I-6-NO2-quipazine, 5-iodo-6-nitroquipazine] | 4.0 |  |  |  |  |
| CN(C)Cc1ccccc1Sc1ccc(Cl)cc1CO [403U76, 5-chloro-2-((2-((dimethyl-amino)methyl)phenyl)thio)benzyl alcohol] |  | 0.0021 ± 0.0004 | 0.055 | 0.055 ± 0.01 | > 1 |
